From US9120774B2 (University of Kansas, priority 2009, dated 2015)

Columns and labels:
[1] = test system: SkBr3 (Her2 overexpressing breast cancer cells); conditions: previously published values; cited from earlier work
[2] = test system: MCF-7 (estrogen receptor positive breast cancer cells); conditions: previously published values; cited from earlier work
cancer cell lines = assay: Anti-proliferative activity, statements covering several cancer cell lines; assay type: cell-based; conditions: SkBr3 and MCF-7, 1 μM
Protocol: Upon completion of synthesis of library of compounds in Examples 23 and 24, the compounds were evaluated for anti-proliferative activity against SkBr3 (Her2 overexpressing breast cancer cells), MCF-7 (estrogen receptor positive breast cancer cells), HCT-116 (colon cancer cells characterized by wild-type p53), PL45 (pancreatic cancer cells), LNCaP (androgen sensitive prostate cancer cells) and PC-3 (androgen independent prostate cancer cells) cell lines. […] The monosubstituted benzamide variants improved activity.
(§1) Cells were maintained in a 1:1 mixture of Advanced DMEM/F12 (Gibco) supplemented with non-essential amino acids, L-glutamine (2 mM), streptomycin (500 ng/mL), penicillin (100 units/mL), and 10% FBS. Cells were grown to confluence in a humidified atmosphere (37° C., 5% CO2), seeded (2000/well, 100 μl) in 96-well plates, and allowed to attach overnight. Compound or GDA at varying concentrations in DMSO (1% DMSO final concentration) was added, and cells were returned to the incubator for 72 hours. At 72 hours, the number of viable cells was determined using an MTS/PMS cell proliferation kit (Promega) per the manufacturer's instructions. Cells incubated in 1% DMSO were used at 100% proliferation, and values were adjusted accordingly. IC50 values were calculated from separate experiments performed in triplicate using GraphPad Prism.
as §1, with “μg/mL),” for “ng/mL),”, “μL)” for “μl)”

primary cortical neurons = assay: Toxicity of drug alone in neuronal cells (Live-Dead assay); assay type: cell-based
Excerpt: More specifically, primary cortical neurons were recovered from embryonic day 18 rat brains as described previously (Michaelis et al., Immunological Localization And Kinetic Characterization Of A Na+/Ca2+Exchanger In Neuronal And Nonneuronal Cells, Brain Res. 661 104-116 (1994)). Briefly, about 10 to 16 brains were removed from fetuses delivered by cesarean section, and the cortices dissected out. The neurons were isolated and suspended in DMEM/F12 supplemented with 10% FBS and plated on sterile dishes or cover slips coated with 10 μg/ml poly-D-lysine and 5 μg/ml mouse laminin. After 24 hours, the serum-containing medium was removed, and neurons were maintained in Neurobasal medium (Gibco) with 2% B-27 supplements (Gibco). Cells were maintained in culture at 37° C. in 5% CO2 and 97% humidity for 7 to 8 eight days in vitro (DIV) before use. […] Stock solutions of Aβ were prepared in sterile water at a concentration of 1.3 mM and stored at −20° C. Aliquots of the stock solutions were diluted to 1 mM in sterile 50 mM Tris-HCl, pH 7.4, and incubated at 37° C. for 24 hours to promote oligomerization of the peptides prior to treatment of the neurons. The effects of KU-1/A4, GA, Aβ, or the indicated combinations on neuronal viability were determined by monitoring cell survival using the Live-Dead assay as previously described. […] Digital images from 6 fields per dish were captured, and the number of viable (green) and dead (red) cells counted. All experiments were conducted with duplicate dishes from at least two neuronal preparations for each treatment, with about 1,000 cells analyzed/treatment condition. The data are expressed as the fraction of viable cells calculated from the total number of neurons counted under each treatment condition. The significance of differences between cultures exposed to various treatment conditions was determined using Student's t-test.

[3] = test system: Hsp90 client protein Her-2 in Skbr3 breast cancer cells; assay: Degradation of Her-2, Western blot in Skbr3 cells; assay type: cell-based; conditions: Homo sapiens, SK-BR-3, read-out: IC50 (concentration producing 50% degradation of Her-2), 24 hours, normalized against actin
Protocol: After incubation, the cells were harvested, lysed, and equal amounts of the protein lysates loaded into SDS wells. After electrophoresis, the gel was probed with Her-2 and actin (control) antibodies.

[4] = test system: Hsp90-dependent client proteins ErbB2 (Her2) and p53 in SKBr3 breast cancer cells; conditions: previous studies; cited from earlier work

| SMILES | IC50 [1] [nM] | IC50 [2] [nM] | cytotoxicity (cancer cell lines) | cytotoxicity in neuronal cells (primary cortical neurons; 10 μM, 24 hours) | cytotoxicity in neuronal cells (primary cortical neurons; lower concentrations, 72 hours) | IC50 [3] [nM] | concentration inducing degradation of ErbB2 [4] |
| --- | --- | --- | --- | --- | --- | --- | --- |
| COC1=C2C[C@@H](C)C[C@H](OC)[C@H](O)[C@@H](C)/C=C(\C)[C@H](OC(N)=O)[C@@H](OC)/C=C\C=C(/C)C(=O)NC(=CC1=O)C2=O [GA, reference compound] | 18 | 133 | almost complete cytotoxicity | significant cytotoxicity | substantial cytotoxicity |  |  |
| CO[C@@H]1[C@@H](OC(N)=O)[C@@H](O)[C@H](Oc2ccc3c(O)c(NC(=O)c4ccc(O)c(CC=C(C)C)c4)c(=O)oc3c2C)OC1(C)C [novobiocin, reference compound] |  |  |  |  |  | 700000 | about 700 μM |
